Measurements: ChEMBL document CHEMBL1932967, “Synthesis and biological evaluation of novel derivatives of gambogic acid as anti-hepatocellular carcinoma agents” (Bioorg Med Chem Lett, 2012)
≈ marks a conversion by molar mass, not a printed value. Calls of active or inactive are those of the source. The calls are words filed in the database; no cut-off is given here.

Assays:
[1] = Cytotoxicity against human QGY7701 cells after 72 hrs by MTT assay; type: functional, cell-based; settings: QGY7701, 72 h
[2] = Cytotoxicity against human Bel7404 cells after 72 hrs by MTT assay; type: functional, cell-based; settings: BEL-7404, 72 h
[3] = Aqueous solubility of the compound; type: physicochemical; settings: water (aqueous)
SMMC-7721 = assay: Cytotoxicity against human SMMC7721 cells after 72 hrs by MTT assay; type: functional, cell-based; settings: SMMC-7721, 72 h
Bel-7402 [4] = assay: Cytotoxicity against human Bel7402 cells after 72 hrs by MTT assay; type: functional, cell-based; settings: Bel-7402, 72 h
HepG2 = assay: cells; settings: Homo sapiens, HepG2, 72 h
Description: Cytotoxicity against human HepG2 cells after 72 hrs by MTT assay

Bel-7402 [5] = assay: Ratio of Taxol IC50 to compound IC50 for human Bel7402 cells; type: functional
Bel-7402 [6] = assay: Ratio of Gambogic acid IC50 to compound IC50 for human Bel7402 cells; type: functional
Bel-7402 [7] = assay: Induction of apoptosis in human Bel7402 cells assessed as late apoptotic cells at 0.1 uM after 48 hrs using V-FITC and propidium iodide staining by flow cytometry (reference value: 2.2 %); type: functional
[8] = Cytotoxicity against human HL-7702 cells at 1.235 uM after 72 hrs by MTT assay; type: cell-based; settings: l02, 72 h
Bel-7402 [9] = assay: Induction of apoptosis in human Bel7402 cells assessed as pre-necrotic cells at 0.1 uM after 48 hrs using V-FITC and propidium iodide staining by flow cytometry (reference value: 0.7 %); type: functional
Bel-7402 [10] = assay: Induction of apoptosis in human Bel7402 cells assessed as viable cells at 0.1 uM after 48 hrs using V-FITC and propidium iodide staining by flow cytometry (reference value: 95.7 %); type: functional; settings: Bel-7402, 48 h, read-out: Activity
Bel-7402 [11] = assay: Induction of apoptosis in human Bel7402 cells assessed as early apoptotic cells at 0.1 uM after 48 hrs using V-FITC and propidium iodide staining by flow cytometry (reference value: 1.4 %); type: functional
Bel-7402 [12] = assay: Induction of apoptosis in human Bel7402 cells assessed as pre-necrotic cells at 0.4 uM after 48 hrs using V-FITC and propidium iodide staining by flow cytometry (reference value: 0.7 %); type: functional
Bel-7402 [13] = assay: Induction of apoptosis in human Bel7402 cells assessed as late apoptotic cells at 0.025 uM after 48 hrs using V-FITC and propidium iodide staining by flow cytometry (reference value: 2.2 %); type: functional
Bel-7402 [14] = assay: Induction of apoptosis in human Bel7402 cells assessed as late apoptotic cells at 0.4 uM after 48 hrs using V-FITC and propidium iodide staining by flow cytometry (reference value: 2.2 %); type: functional
Bel-7402 [15] = assay: Induction of apoptosis in human Bel7402 cells assessed as early apoptotic cells at 0.025 uM after 48 hrs using V-FITC and propidium iodide staining by flow cytometry (reference value: 1.4 %); type: functional
Bel-7402 [16] = assay: Induction of apoptosis in human Bel7402 cells after 48 hrs using V-FITC and propidium iodide staining by flow cytometry; type: functional, cell-based
Bel-7402 [17] = assay: Induction of apoptosis in human Bel7402 cells assessed as early apoptotic cells at 0.4 uM after 48 hrs using V-FITC and propidium iodide staining by flow cytometry (reference value: 1.4 %); type: functional
Bel-7402 [18] = assay: Cytotoxicity against human Bel7402 cells at 1.235 uM after 72 hrs by MTT assay; type: functional, cell-based
Bel-7402 [19] = assay: Induction of apoptosis in human Bel7402 cells assessed as viable cells at 0.4 uM after 48 hrs using V-FITC and propidium iodide staining by flow cytometry (reference value: 95.7 %); type: functional; settings: Bel-7402, 48 h, read-out: Activity
Bel-7402 [20] = assay: Induction of apoptosis in human Bel7402 cells assessed as pre-necrotic cells at 0.025 uM after 48 hrs using V-FITC and propidium iodide staining by flow cytometry (reference value: 0.7 %); type: functional
Bel-7402 [21] = assay: Induction of apoptosis in human Bel7402 cells assessed as viable cells at 0.025 uM after 48 hrs using V-FITC and propidium iodide staining by flow cytometry (reference value: 95.7 %); type: functional; settings: Bel-7402, 48 h, read-out: Activity

Row | solubility [3] [µg/mL] | IC50 (HepG2) [µM] | SMILES | IC50 [1] [µM] | IC50 [2] [µM] | IC50 (SMMC-7721) [µM] | IC50 (Bel-7402 [4]) [µM] | further results
1 | 780 (≈ 1020 µM) | 5.59 | CC(C)=CCC[C@]1(C)C=Cc2c(O)c3c(c(CC=C(C)C)c2O1)O[C@]12C(=C[C@@H]4C[C@H]1C(C)(C)O[C@@]2(C/C=C(/C)C(=O)OCCCCN1CCCCC1)C4=O)C3=O | 4.36 | 6.46 | 4.53 | 3.14 | –
2 | 1350 (≈ 1790 µM) | 19.1 | CC(C)=CCC[C@]1(C)C=Cc2c(O)c3c(c(CC=C(C)C)c2O1)O[C@]12C(=C[C@@H]4C[C@H]1C(C)(C)O[C@@]2(C/C=C(/C)C(=O)OCCCN1CCNCC1)C4=O)C3=O | 4.38 | 27.6 | 26.2 | 18.1 | –
3 | 1170 (≈ 1520 µM) | 1.51 | CC(C)=CCC[C@]1(C)C=Cc2c(O)c3c(c(CC=C(C)C)c2O1)O[C@]12C(=C[C@@H]4C[C@H]1C(C)(C)O[C@@]2(C/C=C(/C)C(=O)OCCCCN1CCOCC1)C4=O)C3=O | 0.53 | 2.11 | 1.54 | 2.13 | –
4 | 840 (≈ 1110 µM) | 0.15 | CC(C)=CCC[C@]1(C)C=Cc2c(O)c3c(c(CC=C(C)C)c2O1)O[C@]12C(=C[C@@H]4C[C@H]1C(C)(C)O[C@@]2(C/C=C(/C)C(=O)OCCCN1CCCCC1)C4=O)C3=O | 0.43 | 1.42 | 1.06 | 0.086 | Ratio IC50 (Bel-7402 [5]): 14.5; Ratio IC50 (Bel-7402 [6]): 8.7
5 | 1230 (≈ 1540 µM) | 3.25 | CC(C)=CCC[C@]1(C)C=Cc2c(O)c3c(c(CC=C(C)C)c2O1)O[C@]12C(=C[C@@H]4C[C@H]1C(C)(C)O[C@@]2(C/C=C(/C)C(=O)OCCCN1CCN(CCO)CC1)C4=O)C3=O | 0.96 | 8.08 | 6.61 | 3.12 | –
6 | 870 (≈ 1180 µM) | 3.18 | CC(C)=CCC[C@]1(C)C=Cc2c(O)c3c(c(CC=C(C)C)c2O1)O[C@]12C(=C[C@@H]4C[C@H]1C(C)(C)O[C@@]2(C/C=C(/C)C(=O)OCCN1CCCCC1)C4=O)C3=O | 0.7 | 7.23 | 6.52 | 1.72 | –
7 | 1320 (≈ 1720 µM) | 24.1 | CC(C)=CCC[C@]1(C)C=Cc2c(O)c3c(c(CC=C(C)C)c2O1)O[C@]12C(=C[C@@H]4C[C@H]1C(C)(C)O[C@@]2(C/C=C(/C)C(=O)OCCCCN1CCNCC1)C4=O)C3=O | 4.12 | 28.6 | 23.5 | 16.7 | –
8 | 1360 (≈ 1840 µM) | 20.1 | CC(C)=CCC[C@]1(C)C=Cc2c(O)c3c(c(CC=C(C)C)c2O1)O[C@]12C(=C[C@@H]4C[C@H]1C(C)(C)O[C@@]2(C/C=C(/C)C(=O)OCCN1CCNCC1)C4=O)C3=O | 5.43 | 31.1 | 28.4 | 19.7 | –
9 | 1210 (≈ 1490 µM) | 1.16 | CC(C)=CCC[C@]1(C)C=Cc2c(O)c3c(c(CC=C(C)C)c2O1)O[C@]12C(=C[C@@H]4C[C@H]1C(C)(C)O[C@@]2(C/C=C(/C)C(=O)OCCCCN1CCN(CCO)CC1)C4=O)C3=O | 2.56 | 9.65 | 3.52 | 1.1 | –
10 | – | 0.05 | CC(=O)O[C@H]1C(=O)[C@@]2(C)[C@H]([C@H](OC(=O)c3ccccc3)[C@]3(O)C[C@H](OC(=O)[C@H](O)[C@@H](NC(=O)c4ccccc4)c4ccccc4)C(C)=C1C3(C)C)[C@]1(OC(C)=O)CO[C@@H]1C[C@@H]2O [PACLITAXEL] | 0.04 | 0.82 | 0.88 | 1.25 | –
11 | 1210 (≈ 1600 µM) | 0.067 | CC(C)=CCC[C@]1(C)C=Cc2c(O)c3c(c(CC=C(C)C)c2O1)O[C@]12C(=C[C@@H]4C[C@H]1C(C)(C)O[C@@]2(C/C=C(/C)C(=O)OCCCN1CCOCC1)C4=O)C3=O | 0.12 | 1.25 | 0.73 | 0.045 | Activity (Bel-7402 [7]): 4.6%; Activity [8]: Toxic; Activity (Bel-7402 [9]): 0.4%; viability at 0.1 µM (Bel-7402 [10]): 72.2%; Activity (Bel-7402 [11]): 22.8%; Activity (Bel-7402 [12]): 0.5%; Activity (Bel-7402 [13]): 7.8%; Activity (Bel-7402 [14]): 5%; Activity (Bel-7402 [15]): 3%; Activity (Bel-7402 [16]): Dose-dependent effect; Activity (Bel-7402 [17]): 44.9%; Ratio IC50 (Bel-7402 [5]): 27.8; Activity (Bel-7402 [18]): Active; viability at 0.4 µM (Bel-7402 [19]): 49.6%; Activity (Bel-7402 [20]): 1.4%; viability at 0.025 µM (Bel-7402 [21]): 87.8%; Ratio IC50 (Bel-7402 [6]): 16.7
12 | 1260 (≈ 1610 µM) | 9.9 | CC(C)=CCC[C@]1(C)C=Cc2c(O)c3c(c(CC=C(C)C)c2O1)O[C@]12C(=C[C@@H]4C[C@H]1C(C)(C)O[C@@]2(C/C=C(/C)C(=O)OCCN1CCN(CCO)CC1)C4=O)C3=O | 1.86 | 10.2 | 8.57 | 3.36 | –

Row | SMILES | solubility [3] [µg/mL] | IC50 (HepG2) [µM] | IC50 [1] [µM] | IC50 [2] [µM] | IC50 (SMMC-7721) [µM] | IC50 (Bel-7402 [4]) [µM] | further results
13 | CC(C)=CCC[C@]1(C)C=Cc2c(O)c3c(c(CC=C(C)C)c2O1)O[C@]12C(=C[C@@H]4C[C@H]1C(C)(C)O[C@@]2(C/C=C(/C)C(=O)OCCN1CCOCC1)C4=O)C3=O | 1230 (≈ 1660 µM) | 0.94 | 0.41 | 1.99 | 1.59 | 0.59 | –
14 | CC(C)=CCC[C@]1(C)C=Cc2c(O)c3c(c(CC=C(C)C)c2O1)O[C@]12C(=C[C@@H]4C[C@H]1C(C)(C)O[C@@]2(C/C=C(/C)C(=O)O)C4=O)C3=O [GAMBOGIC ACID] | 13 (≈ 20.7 µM) | 1.17 | 0.24 | 4.7 | 1.13 | 0.75 | –
